From patent US9724355B2, “Fulvestrant compositions and methods of use” (SHIMODA BIOTECH (PTY) LTD, priority 2010, dated 2017)
Converted amounts (≈) assume the structure as drawn. Read-outs that look alike come from different tables or passages of the source.

Experiment: Fulvestrant aqueous solubility in the presence and absence of cyclodextrins (excess drug, shaken 24 h, filtered, HPLC)
Assay type: physicochemical
Conditions: for Quantity of Fulvestrant Diluted Run 1 / Quantity of Fulvestrant Diluted Run 2 / Average Concentration: diluted sample; for solubility at 24 h: 22 °C
Method: The HPLC system used for the chromatographic determination of fulvestrant consisted of a Waters 600E quaternary gradient pump, a Waters 717plus WISP auto-sampler and a Waters 2487 Dual A, Absorbance detector. Separation was performed using a Phenomenex Luna C18 column (250×4.6 mm; 5 urn) (Phenomenex, Torrance, Calif.) (supplied by Separations, South Africa) and a mobile phase consisting of 50% MeCN:22.5% ddH2O :27.5% MeOH. The mobile phase was degassed and filtered prior to use. […] Sample run times were 15 minutes. The UV detector wavelength was set to 280 nm.
1 mL of each of the following aqueous solutions was prepared containing 0; 25; 50; 75 and 100 mg/mL ACD in ddHiO. Excess fulvestrant was added to each of these solutions and the samples were shaken for 24 hours on an orbital shaker at 200 rpm and at 22° C. room temperature. Excess fulvestrant was present in all samples at all times. After 24-hours, the samples were filtered through 0.45 μm syringe tip filters, diluted according to requirements and assayed by HPLC.
1 mL of each of the following aqueous solutions was prepared containing 0; 5; 7.5; 10 and 15 mg/mL BCD in ddH2O. Excess fulvestrant was added to each of these solutions and the samples were shaken for 24 hours on an orbital shaker at 200 rpm and at 22° C. room temperature. Excess fulvestrant was present in all samples at all times. After 24-hours, the samples were filtered through 0.45 μm syringe tip filters, diluted according to requirements and assayed by HPLC.
1 mL of each of the following aqueous solutions was prepared containing 0; 50; 100; 150; 200; 250; 300; 350 and 400 mg/mL MBCD in ddH2O. Excess fulvestrant was added to each of these solutions and the samples were shaken for 24 hours on an orbital shaker at 200 rpm and at 22° C. room temperature. Excess fulvestrant was present in all samples at all times. After 24-hours, the samples were filtered through 0.45 μm syringe tip filters, diluted according to requirements and assayed by HPLC.
1 mL of each of the following aqueous solutions was prepared containing 0; 50; 100; 150; 200; 250; 300; 350 and 400 mg/mL HPBCD in ddH2O. Excess fulvestrant was added to each of these solutions and the samples were shaken for 24 hours on an orbital shaker at 200 rpm and at 22° C. room temperature. Excess fulvestrant was present in all samples at all times. After 24-hours, the samples were filtered through 0.45 μm syringe tip filters, diluted according to requirements and assayed by HPLC.
1 mL of each of the following aqueous solutions was prepared containing 0; 50; 100; 150; 200; 250; 300; 350 and 400 mg/mL SBEBCD in ddH2O. Excess fulvestrant was added to each of these solutions and the samples were shaken for 24 hours on an orbital shaker at 200 rpm and at 22° C. room temperature. Excess fulvestrant was present in all samples at all times. After 24-hours, the samples were filtered through 0.45 μm syringe tip filters, diluted according to requirements and assayed by HPLC.
1 mL of each of the following aqueous solutions was prepared containing 0; 50; 100; 150; and 200 mg/mL GCD in ddHO. Excess fulvestrant was added to each of these solutions and the samples were shaken for 24 hours on an orbital shaker at 200 rpm and at 22° C. room temperature. Excess fulvestrant was present in all samples at all times. After 24-hours, the samples were filtered through 0.45 μm syringe tip filters, diluted according to requirements and assayed by HPLC.
1 mL of each of the following aqueous solutions was prepared containing 0; 50; 100; 150; 200; 250; 300; 350 and 400 mg/mL HPGCD in ddH2O. Excess fulvestrant was added to each of these solutions and the samples were shaken for 24 hours on an orbital shaker at 200 rpm and at 22° C. room temperature. Excess fulvestrant was present in all samples at all times. After 24-hours, the samples were filtered through 0.45 μm syringe tip filters, diluted according to requirements and assayed by HPLC.

For `C[C@]12CC[C@@H]3c4ccc(O)cc4C[C@@H](CCCCCCCCC[S+]([O-])CCCC(F)(F)C(F)(F)F)[C@H]3[C@@H]1CC[C@@H]2O` (stereo partly drawn) [Fulvestrant, 7-alpha-[9-(4,4,5,5,5-pentafluoropentylsulphinyl)nonyl]estra-1,3,5-(10)-triene-3,17-beta-diol], the “Quantity of Fulvestrant Diluted Run 1” value (300 mg/mL HPBCD) was 164.70 µg/mL, the “Quantity of Fulvestrant Diluted Run 2” value (300 mg/mL HPBCD) was 166.54 µg/mL and the “True Fulvestrant Concentration” value (300 mg/mL HPGCD in ddH2O, 22° C., 24 h) was 0.603 mg/mL. The “Average Concentration” value (300 mg/mL HPGCD) was 392.50 µg/mL, the “Quantity of Fulvestrant Diluted Run 1” value (300 mg/mL HPGCD) was 400.24 µg/mL and the “Quantity of Fulvestrant Diluted Run 2” value (300 mg/mL HPGCD) was 384.76 µg/mL. The “True Fulvestrant Concentration” value (300 mg/mL MBCD in ddH2O, 22° C., 24 h) was 22.673 mg/mL, the “Average Concentration” value (300 mg/mL MBCD) was 226.73 µg/mL and the “Quantity of Fulvestrant Diluted Run 1” value (300 mg/mL MBCD) was 226.52 µg/mL. The “Quantity of Fulvestrant Diluted Run 2” value (300 mg/mL MBCD) was 226.94 µg/mL, the “True Fulvestrant Concentration” value (300 mg/mL SBEBCD in ddH2O, 22° C., 24 h) was 0.852 mg/mL and the “Average Concentration” value (300 mg/mL SBEBCD) was 425.89 µg/mL. The “Quantity of Fulvestrant Diluted Run 1” value (300 mg/mL SBEBCD) was 425.82 µg/mL, the “Quantity of Fulvestrant Diluted Run 2” value (300 mg/mL SBEBCD) was 425.96 µg/mL and the “True Fulvestrant Concentration” value (350 mg/mL HPBCD in ddH2O, 22° C., 24 h) was 4.305 mg/mL. For the same molecule, the “Average Concentration” value (350 mg/mL HPBCD) was 215.26 µg/mL, the “Quantity of Fulvestrant Diluted Run 1” value (350 mg/mL HPBCD) was 215.41 µg/mL and the “Quantity of Fulvestrant Diluted Run 2” value (350 mg/mL HPBCD) was 215.10 µg/mL. The “True Fulvestrant Concentration” value (350 mg/mL HPGCD in ddH2O, 22° C., 24 h) was 0.802 mg/mL, the “Average Concentration” value (350 mg/mL HPGCD) was 502.97 µg/mL and the “Quantity of Fulvestrant Diluted Run 1” value (350 mg/mL HPGCD) was 500.71 µg/mL. The “Quantity of Fulvestrant Diluted Run 2” value (350 mg/mL HPGCD) was 505.22 µg/mL, the “True Fulvestrant Concentration” value (350 mg/mL MBCD in ddH2O, 22° C., 24 h) was 29.275 mg/mL and the “Average Concentration” value (350 mg/mL MBCD) was 292.75 µg/mL. For the same molecule, the “Quantity of Fulvestrant Diluted Run 1” value (350 mg/mL MBCD) was 293.21 µg/mL, the “Quantity of Fulvestrant Diluted Run 2” value (350 mg/mL MBCD) was 292.29 µg/mL and the “True Fulvestrant Concentration” value (350 mg/mL SBEBCD in ddH2O, 22° C., 24 h) was 1.140 mg/mL. For the same molecule, the “Average Concentration” value (350 mg/mL SBEBCD) was 379.96 µg/mL, the “Quantity of Fulvestrant Diluted Run 1” value (350 mg/mL SBEBCD) was 382.24 µg/mL and the “Quantity of Fulvestrant Diluted Run 2” value (350 mg/mL SBEBCD) was 377.67 µg/mL. For the same molecule, the “True Fulvestrant Concentration” value (400 mg/mL HPBCD in ddH2O, 22° C., 24 h) was 5.473 mg/mL, the “Average Concentration” value (400 mg/mL HPBCD) was 273.67 µg/mL and the “Quantity of Fulvestrant Diluted Run 1” value (400 mg/mL HPBCD) was 275.20 µg/mL. For the same molecule, the “Quantity of Fulvestrant Diluted Run 2” value (400 mg/mL HPBCD) was 272.14 µg/mL, the “True Fulvestrant Concentration” value (400 mg/mL HPGCD in ddH2O, 22° C., 24 h) was 1.061 mg/mL and the “Average Concentration” value (400 mg/mL HPGCD) was 468.43 µg/mL. For the same molecule, the “Quantity of Fulvestrant Diluted Run 1” value (400 mg/mL HPGCD) was 486.39 µg/mL, the “Quantity of Fulvestrant Diluted Run 2” value (400 mg/mL HPGCD) was 450.47 µg/mL and the “True Fulvestrant Concentration” value (400 mg/mL MBCD in ddH2O, 22° C., 24 h) was 35.892 mg/mL. The “Average Concentration” value (400 mg/mL MBCD) was 358.92 µg/mL, the “Quantity of Fulvestrant Diluted Run 1” value (400 mg/mL MBCD) was 359.13 µg/mL and the “Quantity of Fulvestrant Diluted Run 2” value (400 mg/mL MBCD) was 358.71 µg/mL. The “True Fulvestrant Concentration” value (400 mg/mL SBEBCD in ddH2O, 22° C., 24 h) was 1.507 mg/mL, the “Average Concentration” value (400 mg/mL SBEBCD) was 502.17 µg/mL and the “Quantity of Fulvestrant Diluted Run 1” value (400 mg/mL SBEBCD) was 503.13 µg/mL. The “Quantity of Fulvestrant Diluted Run 2” value (400 mg/mL SBEBCD) was 501.21 µg/mL, the solubility at 24 h (aqueous cyclodextrin solution, aqueous with cosolvent or surfactant or cyclodextrin, thermodynamic from solid, enhancement with ACD, SBEBCD and HPGCD, read-out: fulvestrant aqueous solubilities) was 1000 to 2000 µg/mL and the solubility at 24 h (aqueous cyclodextrin solution, aqueous with cosolvent or surfactant or cyclodextrin, thermodynamic from solid, in 400 mg/mL HPBCD, read-out: aqueous solubility of fulvestrant) was 5500 µg/mL (≈ 9.06 mM). The solubility at 24 h (aqueous cyclodextrin solution, aqueous with cosolvent or surfactant or cyclodextrin, thermodynamic from solid, in 400 mg/mL MBCD, read-out: fulvestrant aqueous solubility) was 35900 µg/mL (≈ 59.2 mM), the solubility thermodynamic at 24 h (water (ddH2O) without cyclodextrin, water, thermodynamic from solid, 0 mg/mL SBEBCD in ddH2O, 22° C., 24 h, read-out: True Fulvestrant Concentration) was less than 10 µg/mL and the solubility at 24 h (water (ddH2O), water, thermodynamic from solid, absence of cyclodextrin, read-out: aqueous solubility of fulvestrant) was less than 10 µg/mL.
